ChEMBL document CHEMBL1129278, “Binding of arylpiperazines, (aryloxy)propanolamines, and tetrahydropyridylindoles to the 5-HT1A receptor: contribution of the molecular lipophilicity potential to three-dimensional quantitative structure-affinity relationship models” (J Med Chem, 1996)

What follows are compounds tested against T1, 5-hydroxytryptamine receptor 1A (Rattus norvegicus, UniProt P19327).
T1 sequence (P19327 whole entry): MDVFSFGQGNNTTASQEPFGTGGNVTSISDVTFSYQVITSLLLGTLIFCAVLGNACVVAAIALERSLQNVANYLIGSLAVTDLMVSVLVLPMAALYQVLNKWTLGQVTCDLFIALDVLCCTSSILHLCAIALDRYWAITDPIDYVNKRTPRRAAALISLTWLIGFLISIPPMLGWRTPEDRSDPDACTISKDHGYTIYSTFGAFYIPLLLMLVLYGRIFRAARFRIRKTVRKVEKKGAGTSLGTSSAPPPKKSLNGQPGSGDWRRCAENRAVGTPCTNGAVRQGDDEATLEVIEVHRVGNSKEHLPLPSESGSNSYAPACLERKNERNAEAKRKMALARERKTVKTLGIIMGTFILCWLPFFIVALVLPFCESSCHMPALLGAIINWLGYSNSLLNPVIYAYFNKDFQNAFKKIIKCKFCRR

| SMILES | Ki [µM] |
| --- | --- |
| CCCN(CCCCN1C(=O)CC2(CCCC2)CC1=O)C1COc2cccc(OC)c2C1 (stereo not drawn) | 0.0001 |
| CCCN(CCC)C1CCc2cccc(OC)c2C1 (stereo not drawn) | 0.00263 |
| CNCC(COc1cccc(C(F)(F)F)c1)c1ccccc1 (stereo not drawn) | 66.1 |
| NCCc1c[nH]c2ccc(C(N)=O)cc12 | 0.000295 |
| Oc1ccc2cccc(N3CCNCC3)c2c1 | 0.00331 |
| Cn1cc(CCN)c2c3c(ccc21)OCCC3 | 2.63 |
| C=CCN(CCC)C1CCc2cccc(OS(=O)(=O)C(F)(F)F)c2C1 (stereo not drawn) | 0.00955 |
| CC(C)CN1CCN(c2cccc(Cl)c2)CC1 | 0.0646 |
| CCCN(CCC)C1COc2ccccc2C1 (stereo not drawn) | 0.2 |
| CCCN(CCCCNS(=O)(=O)c1ccc(C)cc1)C1COc2cccc(OC)c2C1 (stereo not drawn) | 0.001 |
| CCCCN(CCCC)CC(O)COc1cccc2ccccc12 (stereo not drawn) | 0.224 |
| NCCc1c[nH]c2ccc(N)cc12 | 0.708 |
| Oc1ccc2[nH]cc(C3=CCNCC3)c2c1 | 0.0151 |
| N#Cc1ccc2[nH]cc(C3=CCNCC3)c2c1 | 0.0162 |
| CCCN(CCN1C(=O)c2ccccc2C1=O)C1COc2cccc(OC)c2C1 (stereo not drawn) | 0.398 |
| CCCN(CCC)C1CCc2cccc(CO)c2C1 (stereo not drawn) | 0.129 |
| CN(C)CCc1cn(C)c2ccc3c(c12)CCCO3 | 2.69 |
| C#Cc1cccc2c1CC(N(CCC)CCC)CC2 (stereo not drawn) | 0.0158 |
| C=C=CN1CCN(c2cccc(Cl)c2)CC1 | 0.251 |
| COc1ccccc1N1CCN(CCCc2ccccc2)CC1 | 0.00372 |
| CCCN(CCC)C1CCc2cccc(C3CCCCC3)c2C1 (stereo not drawn) | 0.024 |
| COc1ccccc1N1CCN(CCN2C(=O)c3ccccc3C2=O)CC1 | 1 |
| CC(C)(C)NCC(O)COc1ccc2c(c1)C[C@H](O)[C@H](O)C2 (stereo partly drawn) | 1.07 |
| Cc1[nH]c2ccc(O)cc2c1CCN | 2.51 |
| COc1cccc2c1CC(N)CC2 (stereo not drawn) | 0.178 |
| CCCN(CCNC(C)=O)C1COc2cccc(OC)c2C1 (stereo not drawn) | 0.02 |

| SMILES | Ki [µM] |
| --- | --- |
| CCCOCOCCc1ccc(OCC(O)CNC(C)C)cc1 (stereo not drawn) | 10 |
| NCCCCN1CCN(c2ccccc2)CC1 | 6.03 |
| CC(C)NCC(O)COc1cccc2[nH]c(C#N)cc12 (stereo not drawn) | 0.00214 |
| CCCN(CCCCN1C(=O)CC2(CCCC2)CC1=O)C1COc2ccccc2C1 (stereo not drawn) | 0.001 |
| CCCCN1CCN(c2ccccc2OC)CC1 | 0.129 |
| O=C1CC2(CCCC2)CC(=O)N1CCN1CCN(c2ncccn2)CC1 | 0.151 |
| CC(C)NCC(O)COc1ccc(CCOCCOC(C)C)cc1 (stereo not drawn) | 10 |
| CCCN(CCC)C1CCc2cccc(C(=O)OC)c2C1 (stereo not drawn) | 0.0017 |
| COc1ccccc1N1CCN(CCCCNC2CC3CCC2C3)CC1 (stereo not drawn) | 0.00398 |
| COc1ccccc1N1CCN(CCCN2C(=O)c3ccccc3C2=O)CC1 | 0.02 |
| O=C1c2ccccc2C(=O)N1CCCCN1CCN(c2cccc(Cl)c2)CC1 | 0.00468 |
| CC(C)C(=O)N1CCN(c2cccc(Cl)c2)CC1 | 100 |
| Fc1ccc2[nH]cc(C3=CCNCC3)c2c1 | 0.0324 |
| Cc1ccc(OCC(O)CNC(C)C)c2c1CCC2 (stereo not drawn) | 19.1 |
| CCCN(CCC)C1CCc2cccc(C(=O)O)c2C1 (stereo not drawn) | 0.302 |
| CCCN(CCCCCCN1C(=O)CC2(CCCC2)CC1=O)C1COc2cccc(OC)c2C1 (stereo not drawn) | 0.000501 |
| O=C1c2ccccc2C(=O)N1CCN1CCN(c2ccccc2)CC1 | 10 |
| COc1ccccc1N1CCN(CCCCNC(=O)C2CCCCC2)CC1 | 0.000603 |
| CCCN(CCCCN1C(=O)CC(C)(C)CC1=O)C1COc2cccc(OC)c2C1 (stereo not drawn) | 0.002 |
| CCCNC1CCc2cccc(OC)c2C1 (stereo not drawn) | 0.00479 |
| COc1ccccc1N1CCN(CCc2ccccc2)CC1 | 0.00182 |
| CCCN(CCC)C1CCc2cccc(C)c2C1 (stereo not drawn) | 0.0617 |
| CCCN(CCC)CC(O)CO (stereo not drawn) | 2.75 |
| CCCN(C1COc2cccc(OC)c2C1)N1C(=O)c2ccccc2S1(=O)=O (stereo not drawn) | 0.000501 |
| CC(=O)N1CCN(c2cccc(Cl)c2)CC1 | 100 |
| CC(O)CN(CC(C)O)CC(O)COc1cccc2ccccc12 (stereo not drawn) | 1.32 |

| SMILES | Ki [µM] |
| --- | --- |
| CN(C)CCc1c[nH]c2cc3c(cc12)CCCO3 | 0.603 |
| NCCc1c[nH]c2ccc3c(c12)CCCO3 | 0.302 |
| CN1CC=C(c2c[nH]c3ccc(Br)cc23)CC1 | 0.0151 |
| O=C1CC2(CCCC2)CC(=O)N1CCCN1CCN(c2ncccn2)CC1 | 0.214 |
| CN1CCN(c2nc3cc(C(F)(F)F)ccc3n3cccc23)CC1 | 0.00955 |
| COc1ccccc1N1CCN(CCCCN2C(=O)CC3(CCCC3)CC2=O)CC1 | 0.002 |
| CC(C)NCC(O)COc1cccc2[nH]c(OC(=O)OC(C)C)cc12 (stereo not drawn) | 0.0174 |
| Brc1ccc2[nH]cc(C3=CCNCC3)c2c1 | 0.00646 |
| CN(C)CC(O)COc1cccc2ccccc12 (stereo not drawn) | 0.347 |
| COc1ccccc1OCC(O)CN(C)C (stereo not drawn) | 3.02 |
| CCCN(CCCN1C(=O)CC2(CCCC2)CC1=O)C1COc2cccc(OC)c2C1 (stereo not drawn) | 0.000501 |
| CN1CCN(c2cccc3c2OCCO3)CC1 | 0.0229 |
| COc1ccccc1N1CCN(CCCOc2cccc3ccccc23)CC1 | 0.00891 |
| CCCN(CCC)C1CCc2cccc(C#N)c2C1 (stereo not drawn) | 0.0372 |
| CNCCc1c[nH]c2ccc(O)cc12 | 0.0049 |
| CN1CC=C(c2c[nH]c3ccc(N)cc23)CC1 | 24.5 |
| C1=C(c2c[nH]c3ccccc23)CCNC1 | 0.141 |
| c1ccc2cc(N3CCNCC3)ccc2c1 | 3.24 |
| CCCN(CCCCNC(=O)c1ccc(F)cc1)C1COc2cccc(OC)c2C1 (stereo not drawn) | 0.0002 |
| CCCN(CCC)C1COc2cccc(O)c2C1 (stereo not drawn) | 0.002 |
| COc1ccc2cccc(N3CCN(CCNC(=O)c4cccs4)CC3)c2c1 | 0.000562 |
| CCCN(CCCNS(=O)(=O)c1ccc(C)cc1)C1COc2cccc(OC)c2C1 (stereo not drawn) | 0.00151 |
| CCCN(CCNS(=O)(=O)c1ccc(C)cc1)C1COc2cccc(OC)c2C1 (stereo not drawn) | 0.001 |
| O=C1C=CC(c2[nH]c3ccccc3c2C2=CCNCC2)=NC1 | 1.51 |
| CN(C)CC(O)COc1ccccc1O (stereo not drawn) | 4.9 |
| CC(CN)c1c[nH]c2ccc(O)cc12 (stereo not drawn) | 0.0851 |

| SMILES | Ki [µM] |
| --- | --- |
| CCCCCCCCN1CCN(c2ccccc2)CC1 | 0.0112 |
| COc1cccc2c1CC(N1CCCCC1)CC2 (stereo not drawn) | 0.0776 |
| FC(F)(F)c1ccc2c(c1)nc(N1CCNCC1)c1cccn12 | 0.0186 |
| COc1ccccc1N1CCN(CCCCCc2ccccc2)CC1 | 0.00562 |
| O=C1c2ccccc2C(=O)N1CCCCN1CCN(c2ccccn2)CC1 | 0.00617 |
| CCCN(CCC)C1CCc2cccc(C(=O)C3CCCCC3)c2C1 (stereo not drawn) | 0.0158 |
| CCCCN1CCN(c2cccc3ccccc23)CC1 | 0.00708 |
| COc1ccccc1N1CCN(CCCCNc2ccc([N+](=O)[O-])c3nonc23)CC1 | 0.000398 |
| CCCN(CCCON1C(=O)CC2(CCCC2)CC1=O)C1COc2cccc(OC)c2C1 (stereo not drawn) | 0.000501 |
| O=C1c2ccccc2S(=O)(=O)N1CCCCN1CCN(c2ccccn2)CC1 | 0.00692 |
| Clc1ccc2[nH]cc(C3=CCNCC3)c2c1 | 0.0132 |
| CCCN(CCCCNC(=O)c1ccccc1OC)C1COc2cccc(OC)c2C1 (stereo not drawn) | 0.000501 |
| c1ccc2c(c1)CCC2N1CCN(c2cccc3c2OCCO3)CC1 (stereo not drawn) | 0.00182 |
| CN1CC=C(c2c[nH]c3ccc(Cl)cc23)CC1 | 0.0263 |
| CCCN(CCCCN1C(=O)c2ccccc2C1=O)C1COc2cccc(OC)c2C1 (stereo not drawn) | 0.00251 |
| O=[N+]([O-])c1ccc2[nH]cc(C3=CCNCC3)c2c1 | 0.0182 |
| CCCN(CCN1C(=O)CC2(CCCC2)CC1=O)C1COc2cccc(OC)c2C1 (stereo not drawn) | 0.0151 |
| CN1CC=C(c2c[nH]c3ccc([N+](=O)[O-])cc23)CC1 | 0.0372 |
| COc1ccccc1N1CCN(CCCCNC(=O)C(C)c2ccccc2)CC1 (stereo not drawn) | 0.01 |
| COc1ccccc1N1CCN(CCCCNCc2ccccc2)CC1 | 0.0603 |
| CCCN(CCC)C1COc2cccc(OC)c2C1 (stereo not drawn) | 0.01 |
| CC1(C)CC(=O)N(CCCCN2CCN(c3ccccn3)CC2)C(=O)C1 | 0.0708 |
| CCCN(CCCCN1C(=O)c2ccccc2C1=O)C1COc2cccc(O)c2C1 (stereo not drawn) | 0.0447 |
| COc1ccccc1N1CCN(CCCCc2ccccc2)CC1 | 0.001 |
| CN1CC=C(c2c[nH]c3ccc(C4COCCO4)cc23)CC1 (stereo not drawn) | 0.0871 |
| COc1c(Cl)cccc1N1CCNCC1 | 0.871 |

| SMILES | Ki [µM] |
| --- | --- |
| CCCN(CCC)C1CCc2ccccc2C1 (stereo not drawn) | 0.0562 |
| Clc1cccc(N2CCN(C3CC3)CC2)c1 | 0.158 |
| CCCN(CCCCN1CCOCC1)C1COc2cccc(OC)c2C1 (stereo not drawn) | 0.00398 |
| COc1cccc2c1CC(N1CCCC1)CO2 (stereo not drawn) | 0.00347 |
| CCCCCCCCN1CCN(c2cccc3c2OCCO3)CC1 | 0.001 |
| CC(C)(C)NCC(O)COc1cccc2c1NC(=O)CC2 (stereo not drawn) | 0.224 |
| CCCN(CCC)C1CCc2cccc(C(C)=O)c2C1 (stereo not drawn) | 0.000708 |
| CN1CCN(c2cccc3ccoc23)CC1 | 0.00794 |
| CNCC(O)CO (stereo not drawn) | 3.31 |
| O=C1c2ccccc2C(=O)N1CCCCN1CCN(c2ccccc2Cl)CC1 | 0.00501 |
| CN(C)CCc1c[nH]c2ccc3c(c12)CCCO3 | 0.955 |
| CCCN(CCC)CC(O)COc1cccc2ccccc12 (stereo not drawn) | 0.447 |
| CCCN(CCCCN1CCCCC1)C1COc2cccc(OC)c2C1 (stereo not drawn) | 0.001 |
| CCCc1ccc2c(c1CCC)CC(N(CCC)CCC)CO2 (stereo not drawn) | 10 |
| CCCN1CC=C(c2c[nH]c3ccc(C(=O)OC)cc23)CC1 | 0.38 |
| O=C(c1ccccc1)N1CCN(c2cccc(Cl)c2)CC1 | 100 |
| CCCN(CCCN1C(=O)c2ccccc2C1=O)C1COc2cccc(OC)c2C1 (stereo not drawn) | 0.0501 |
| O=C(NCCN1CCN(/C(O)=C2/COCCO2)CC1)c1ccc(F)cc1 | 0.00912 |
| O=C1c2ccccc2C(=O)N1CCCCN1CCN(c2ccccc2)CC1 | 0.00851 |
| Cc1ccc2[nH]cc(C3=CCN(C)CC3)c2c1 | 0.0316 |
| CC(C)NCC(O)COc1ccccc1 (stereo not drawn) | 0.17 |
| COc1ccccc1N1CCNCC1 | 0.0129 |
| CN(C)CC(O)CO (stereo in doubt; 122) | 5.01 |
| CN(C)CC(O)CO (stereo in doubt; 123) | 4.9 |
